# From patent US6403554B2, “Polyunsaturated fatty acid derivatives and their use” (Ardenia Investments Ltd., priority 1998, dated 2002)
# “Also recorded” adds a separate entry of the source.
# How the values were obtained:
# [1] = system: antibody-forming cells (AFC) in the spleen; assay: Influence of compound on humoral immune response to sheep erythrocytes, C57B1/6 female mice (AFC in spleen, hemagglutinins); format: in vivo; conditions: for Amount of antibody-forming cells per 10^6 spleen cells / Amount of antibody-forming cells per spleen / Effect on relative amount of AFC (per 10^6 spleen cells) / Effect on total AFC amount (per spleen): 5th day; for Amount of antibody-forming cells per 10^6 spleen cells / Amount of antibody-forming cells per spleen: M ± SEM; for Effect on relative amount of AFC (per 10^6 spleen cells) / Effect on total AFC amount (per spleen) / Effect on hemagglutinin titers: vs control; for Spleen index: with SRBC i.p.
# [2] = system: antibody-forming cells (AFC) in the spleen; assay: Influence of human AFP/compound complex and compound alone on humoral immune response, C57B1/6 male mice; format: in vivo; conditions: compound alone, 91 μg/mouse i.v., 5th day
# Description: The influence of complexes of AFP with one of the title compounds 1-4, 1a-4a, 5-20 as well as their basic components on humoral immune response was estimated by counting the quantity of antibody-forming cells (AFC) in the mice spleen.
# (§1) 0.15 ml of AFP/Compound 3 complex was administered intravenously to 6 mice males of C57B1/6 line (weight 18-22 g) in the dose of […] of AFP and 45.5 μg of compound 3 per capita. Simultaneously suspension of 5·10^7 sheep erythrocytes was injected intraperitoneally (0.2 ml per capita). In the group with compound 3 mice were injected intravenously by one in the dose of 45.5 μg. Animals of group with AFP received 9 μg of AFP. Mice of control group were injected intravenously with equal volume of saline. Complex AFP/Compound 3 effect on humoral immune response was analyzed by counting the quantity of AFC in the spleen according to Cunningham (per 10^6 spleen cells and per spleen).
# (§2) 0.15 ml of AFP/Compound 2a complex (1:100) was administered intravenously to 6 mice males of C57B1/6 line (weight 18-22 g) in the dose of 9 μg of AFP and 45.5 μg of compound 2a per capita. Simultaneously, a suspension of 5·10^7 sheep erythrocytes was injected intraperitoneally (0.2 ml per capita). In the group with compound 2a mice were injected intravenously by one in the dose of 45.5 μg. Animals of group with AFP received 9 μg of AFP. Mice in the control group were injected intravenously with an equal volume of saline. The effect of the AFP/Compound 2a complex on humoral immune response was analyzed by counting the quantity of AFC in the spleen according to Cunningham (per 10^6 spleen cells and per spleen).
# (§3) 0.15 ml of AFP/Compound 10 complex (1:200) was administered intravenously to 6 male mice of C57B1/6 line (weight 18-22 g) in the dose of 9 μg of AFP and 91 μg of compound 10 per capita. Simultaneously, a suspension of 5·10^7 sheep erythrocytes was injected intraperitoneally (0.2 ml per capita). In the group receiving compound 10 mice were injected intravenously by one in the dose of 91 μg. Animals in the group with AFP received 9 μg of AFP. Micein the control group were injected intravenously with an equal volume of saline. The effect of the AFP/Compound 10 complex on humoral immune response was analyzed by counting the quantity of AFC in the spleen according to Cunningham (per 10^6 spleen cells and per spleen).
# as §3, with “AFP/Compound 14” for “AFP/Compound 10”, “compound 14” for “compound 10”, “group with” for “group receiving”, “Animals of” for “Animals in the”, “AFP. Mice in” for “AFP. Micein”
# [3] = system: antibody-forming cells (AFC) in the spleen; assay: Humoral immune response: counting antibody-forming cells (AFC) in the spleen according to Cunningham, mice immunised with sheep erythrocytes; format: in vivo, C57B1/6 mice; conditions: compound alone
# Description: 0.15 ml of compound 10 was administered intravenously to 6 mice females of CS7B1/6 line (weight 18-22 g) in doses of 45.5, 91 and 136.5 μg of compound 10 per capita for each testing group according to the dose. Simultaneously, a suspension of 5·10^7 sheep erythrocytes was injected intraperitoneally (0.2 ml per capita). Mice in the control group were injected intravenously with equal volume of saline. The effects of compound 10 on humoral immune response were analyzed both by counting the quantity of AFC in the spleen according to Cunningham (per 10^6 spleen cells and per spleen) and estimating the titers of hemagglutining antibodies in serum of the animals (Cunningham A. J., Nature, 1965, Vol.207, No 5001. P.1106-1107), while the titers of hemagglutinating antibodies were evaluated according to litterature (Evans J. et al., Cell, 1974; Vol 3., p.153-158, Feizi T., Menger E., Transfusion, 1970, Vol. 10, p.33-35,).
# (§4) 0.15 ml of compound 11 was administered intravenously to 6 female mice of the C57B1/6 line (weight 18-22 g) in doses of 45.5, 91 and 136.5 μg of compound 11 per capita for each testing group according to the dose. Simultaneously, a suspension of 5·10^7 sheep erytrocytes was injected intraperitoneally (0.2 ml per capita). Mice in the control group were injected intravenously with an equal volume of saline. The effects of compound 11 on humoral immune response was analysed both by counting the quantity of AFC in the spleen according to Cunningham (per 10^6 spleen cells and per spleen) and estimating the titers of hemagglutining antibodies in serum of the animals.
# as §4, with “12” for “11”, “erythrocytes” for “erytrocytes”, “analyzed” for “analysed”
# as §4, with “compound 8” for “compound 11”, “sheep erythrocytes” for “sheep erytrocytes”, “Mice of” for “Mice in”, “response were analyzed” for “response was analysed”
# as §4, with “compound 3” for “compound 11”, “Mice of” for “Mice in”, “with” for “with an”, “response were” for “response was”
# 0.15 ml of compound 4 was administered intravenously to 6 female mice of the C57B1/6 line (weight 18-22 g) in a doses of 45.5, 91 and 136.5 μg of compound 4 per capita for each testing group according to the dose. Simultaneously, a suspension of 5·10^7 sheep erythrocytes was injected intraperitoneally (0.2 ml per capita). […]
# [4] = system: hemagglutinating antibodies in serum; assay: Humoral immune response: titers of hemagglutinating antibodies in serum; format: in vivo, C57B1/6 mice; conditions: serum, female mice
# [5] = system: antibody-forming cells (AFC) in the spleen; assay: Influence of AFP/compound complexes and their components on humoral immune response (AFC in spleen); format: in vivo, C57B1/6 mice; conditions: for Dose at which immunostimulating effect in vivo is displayed: compound in a complex with AFP
# Description: as §1, §2, §3
# as §3, with “AFP/Compound 14” for “AFP/Compound 10”, “compound 14” for “compound 10”, “group with” for “group receiving”, “Animals of” for “Animals in the”, “AFP. Mice in” for “AFP. Micein”
# 0.15 ml of AFP/Compound 7 complex (1:200) was administered intravenously to 6 male mice of C57B1/6 line (weight 18-22 g) in the dose of 9 μg of AFP and 91 μg of compound 7 per capita. Simultaneously, a suspension of 5·10^7 sheep erythrocytes was injected intraperitoneally (0.2 ml per capita). In the group with compound 7 mice were injected intravenously by one in the dose of 91 μg. Animals of group with AFP received 9 μg of AFP. Mice of control group were injected intravenously with equal volume of saline. AFP/Compound 7 complex effect on humoral immune response was analyzed by counting the quantity of AFC in the spleen according to Cunningham (per 10^6 spleen cells and per spleen).
# 0.15 ml of AFP/Compound 15 complex (1:200) was administered intravenously to 6 mice males of C57B1/6 line (weight 18-22 g) in the dose of 9 μg of AFP and 91 μg of compound 15 per capita. Simultaneously, a suspension of 5·10^7 sheep erythrocytes was injected intraperitoneally (0.2 ml per capita). In the group receiving compound 15, the mice were injected intravenously by one in the dose of 91 μg. Animals in the AFP-group received 9 μg of AFP. […]
structure (smiles),measurement,setting,value
"CC/C=C\C/C=C\C/C=C\C/C=C\C/C=C\C/C=C\CCC(=O)N[C@@H](COP(=O)(O)O)C(=O)O [Compound 10, N-(cis-4,7,10,13,16,19-docosahexaenoyl)-O-phospho-L-serine]",Amount of antibody-forming cells per 10^6 spleen cells,"[1]; 45.5 μg/mouse, i.v.",304.9±46.6 cells per 10^6 spleen cells
same,Amount of antibody-forming cells per spleen,"[1]; 45.5 μg/mouse, i.v.",30.2±5.7 × 10^3
same,Effect on relative amount of AFC (per 10^6 spleen cells),"[1]; 45.5 μg/mouse, i.v.",+11.6 p > 0.05%
same,Effect on total AFC amount (per spleen),"[1]; 45.5 μg/mouse, i.v.",−3.5 p > 0.05%
same,Effect on hemagglutinin titers,"[1]; 45.5 μg/mouse, i.v.",+11.4 p > 005%
same,Spleen index,"[1]; 45.5 μg/mouse, i.v.",6.9 ± 0.2 10^−3
same,Amount of antibody-forming cells per 10^6 spleen cells,"[1]; 91 μg/mouse, i.v.",326.2±65.4 cells per 10^6 spleen cells
same,Amount of antibody-forming cells per spleen,"[1]; 91 μg/mouse, i.v.",34.7±8.5 × 10^3
same,Effect on relative amount of AFC (per 10^6 spleen cells),"[1]; 91 μg/mouse, i.v.",+19.4 p > 0.05%
same,Effect on total AFC amount (per spleen),"[1]; 91 μg/mouse, i.v.",+10.9 p > 0.05%
same,Effect on hemagglutinin titers,"[1]; 91 μg/mouse, i.v.",+11.4 p > 005%
same,Spleen index,"[1]; 91 μg/mouse, i.v.",6.6 ± 0.4 10^−3
same,Amount of antibody-forming cells per 10^6 spleen cells,"[1]; 136.5 μg/mouse, i.v.",651.6±48.2 cells per 10^6 spleen cells
same,Amount of antibody-forming cells per spleen,"[1]; 136.5 μg/mouse, i.v.",81.1±5.8 × 10^3
same,Amount of hemagglutinins,"[1]; 136.5 μg/mouse, i.v., serum",8.5±0.4 Log2 T
same,Spleen index,"[1]; 136.5 μg/mouse, i.v.",6.7 ± 0.2 10^−3
same,Immunogenic activity,[1]; 45.5 and 91 μg/mouse,no immunogenic activity
same,relative amount of AFC,[2],326.2±65.4 cells per 10^6 spleen cells
same,total AFC amount,[2],34.7±8.5 × 10^3
"CC1=C(/C=C/C(C)=C/C=C/C(C)=C/C(=O)N[C@H](C(=O)O)[C@@H](C)OP(=O)(O)O)C(C)(C)CCC1 (relative stereo) [Compound 3, N-(all-trans-retinoyl)-o-phospho-L-threonine]",Dose at which immunostimulating effect in vivo is displayed (micelle form),[3],91 μg/mouse
same,Amount of hemagglutinins,[4]; 45.5 μg/mouse i.v.,6.6 ± 0.2 Log2 T
same,Amount of hemagglutinins,[4]; 91 μg/mouse i.v.,8.0 ± 0.3 Log2 T
same,Amount of hemagglutinins,[4]; 136.5 μg/mouse i.v.,8.7 ± 0.3 Log2 T
same,Dose at which immunostimulating effect in vivo is displayed,[5],45.5 μg/mouse
"CC1=C(/C=C/C(C)=C/C=C/C(C)=C\C(=O)N[C@@H](COP(=O)(O)O)C(=O)O)C(C)(C)CCC1 (stereo in doubt) [Compound 2a, N-(13-cis-retinoyl)-o-phospho-L-serine]",Dose at which immunostimulating effect in vivo is displayed (micelle form),[3],91 μg/mouse
same,Amount of hemagglutinins,[4]; 45.5 μg/mouse i.v.,7.2 ± 0.3 Log2 T
same,Amount of hemagglutinins,[4]; 91 μg/mouse i.v.,7.5 ± 0.2 Log2 T
same,Amount of hemagglutinins,[4]; 136.5 μg/mouse i.v.,8.2 ± 0.4 Log2 T
same,Immunogenic activity,"[5]; compound alone, 45.5 μg/mouse",no immunogenic activity; also recorded: do not inhibit immunogenic activity
same,Dose at which immunostimulating effect in vivo is displayed,[5],45.5 μg/mouse
